This note sets out measurements from patent publication US20060258598A1, “Alpha-keto carbonyl calpain inhibitors” (priority 2003, published 2006).

One assay addresses T1, human μ-calpain (Homo sapiens, UniProt P07384).
T1 construct: purchased Calbiochem
T1 sequence (P07384 1-714): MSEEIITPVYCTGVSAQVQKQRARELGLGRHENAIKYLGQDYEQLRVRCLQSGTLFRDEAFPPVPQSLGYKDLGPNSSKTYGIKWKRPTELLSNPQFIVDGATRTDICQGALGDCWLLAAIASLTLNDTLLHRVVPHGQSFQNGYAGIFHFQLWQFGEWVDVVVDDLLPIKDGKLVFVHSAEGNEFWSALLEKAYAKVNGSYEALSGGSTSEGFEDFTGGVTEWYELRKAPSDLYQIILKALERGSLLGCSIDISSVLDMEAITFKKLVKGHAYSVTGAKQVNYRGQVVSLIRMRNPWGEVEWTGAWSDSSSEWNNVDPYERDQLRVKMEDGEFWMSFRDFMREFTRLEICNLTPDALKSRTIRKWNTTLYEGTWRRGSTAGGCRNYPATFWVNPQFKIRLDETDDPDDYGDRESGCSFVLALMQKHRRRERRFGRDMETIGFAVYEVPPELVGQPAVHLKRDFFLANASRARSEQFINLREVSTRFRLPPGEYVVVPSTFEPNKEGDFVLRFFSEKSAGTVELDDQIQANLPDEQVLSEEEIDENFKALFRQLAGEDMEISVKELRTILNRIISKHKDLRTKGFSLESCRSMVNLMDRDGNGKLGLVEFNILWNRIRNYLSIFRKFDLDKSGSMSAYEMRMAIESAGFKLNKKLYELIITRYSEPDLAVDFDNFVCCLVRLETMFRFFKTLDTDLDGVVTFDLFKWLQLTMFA
T1 sequence (P04632 1-268 partner): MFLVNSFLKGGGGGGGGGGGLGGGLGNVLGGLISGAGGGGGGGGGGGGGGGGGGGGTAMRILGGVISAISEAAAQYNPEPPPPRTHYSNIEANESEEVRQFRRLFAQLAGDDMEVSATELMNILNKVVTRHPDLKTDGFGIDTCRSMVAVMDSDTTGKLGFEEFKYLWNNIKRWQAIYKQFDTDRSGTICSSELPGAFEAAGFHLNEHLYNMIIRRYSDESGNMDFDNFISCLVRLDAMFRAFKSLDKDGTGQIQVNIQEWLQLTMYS
The experiment in a line: Enzymatic calpain inhibition assay. The class given is biochemical. To be noted: substrate Suc-Leu-Tyr-AMC, read-out: Calp I IC50. The method, boiled down:
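Human μ-calpain (0.5 μg) with 250 μM Suc-Leu-Tyr-AMC in 100 mM imidazole pH 7.5, 5 mM cysteine, 5 mM CaCl2. AMC fluorescence (ex 360/em 440 nm) followed 30 min at 30 °C; IC50 determined graphically from initial velocities versus inhibitor concentration.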

Assay [1] has as its system cellular calpains in C2C12 myoblasts. The experiment in a line: Calpain inhibition assay in C2C12 myoblasts. The class given is cell-based. To be noted: 2 h incubation, calcium ionophore Br-A-23187, read-out: Calp I IC50 Myoblast. The procedure, abridged:
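Confluent C2C12 myoblasts in fusion medium (DMEM, 5% horse serum) exposed to compound for 2 h at 37 °C, then loaded with 400 μM Suc-Leu-Tyr-AMC for 20 min at room temperature in buffer with 4 mM CaCl2, HEPES pH 7.25. Calpains activated by Br-A-23187 ionophore (20 μM in added buffer); AMC fluorescence read each minute for 60 min at 37 °C to derive IC50.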

A further assay deals with T2, 20S Proteasome (Oryctolagus cuniculus, UniProt G1T4Q9).
T2 sequence (G1T4Q9 1-263): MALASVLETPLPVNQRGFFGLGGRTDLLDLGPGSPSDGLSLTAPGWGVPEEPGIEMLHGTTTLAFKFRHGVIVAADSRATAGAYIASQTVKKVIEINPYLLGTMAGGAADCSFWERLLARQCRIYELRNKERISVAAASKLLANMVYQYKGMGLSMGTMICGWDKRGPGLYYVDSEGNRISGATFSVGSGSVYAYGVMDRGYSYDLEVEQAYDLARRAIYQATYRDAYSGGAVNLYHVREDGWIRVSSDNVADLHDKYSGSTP
Kind of assay: 20S Proteasome assay. The class given is biochemical, Rabbit. The following applies: substrate Suc-Leu-Leu-Val-Tyr-AMC; read-out: 20S Prot IC50. The procedure:
25 μl of a reaction buffer containing 400 μM of the fluorogenic substrate Suc-Leu-Leu-Val-Tyr-AMC (Bachem) are dispensed per well of a white microtiter plate. Test compounds dissolved in 0.5 μl DMSO are added. To start the reaction; 25 μl of reaction buffer containing 35 ng of enzyme (20S Proteasome, Rabbit, Calbiochem) are added. The increase in fluorescence (excitation at 360 nm; emission at 440 nm) is measured over 30 min at 30° C. at 30″. The IC50's are then determined from the slopes.

Assay [2] has as its system Primary fibroblasts from donors with Friedreich Ataxia (FRDA). Kind of assay: BSO assay (cell viability under BSO-induced oxidative stress). The class given is cell-based, human. To be noted: 24 h preincubation, 1 mM BSO; for EC50: Homo sapiens, Fibroblast. The procedure, abridged:
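FRDA patient primary fibroblasts were pretreated with compounds for 24 h, then exposed to 1 mM BSO (final) until toxicity appeared in BSO-only controls (typically 16–48 h). Viability was read by calcein AM (1.2 μM)/ethidium homodimer (4 μM) staining, 60 min RT, fluorescence 485/525 nm.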

`CCNC(=O)C(=O)[C@H](CC1CCCCC1)NC(=O)[C@H](CC(C)C)NC(=O)CCCCC1CCSS1` (some centres unmarked) [Example 151]: the IC50 was 35 nM at human μ-calpain, 1800 nM in assay [1] and > 100000 nM on 20S Proteasome.
For the molecule `CCNC(=O)C(=O)[C@H](Cc1ccc(F)cc1)NC(=O)[C@H](CC(C)C)NC(=O)CCCCC1CCSS1` (some centres unmarked) [Example 39], the IC50 was 35 nM on human μ-calpain, 3000 nM in assay [1] and 800 nM at 20S Proteasome. Further, the “BSO EC50” value in assay [2] was “inactive”.
For `CCNC(=O)C(=O)[C@H](Cc1ccc(Br)cc1)NC(=O)[C@@H](NC(=O)CCCCC1CCSS1)C(C)C` (some centres unmarked) [Example 53], the half-maximal inhibitory concentration (IC50) at human μ-calpain was 60 nM; in assay [1] it was 200 nM; at 20S Proteasome, 180 nM. The midpoint of the response in assay [2], the EC50, lay at 400 nM.
Consider `CCNC(=O)C(=O)[C@H](Cc1ccc(F)c(F)c1)NC(=O)[C@H](CC(C)C)NC(=O)CCCCC1CCSS1` (some centres unmarked) [Example 47], for which the half-inhibitory concentration (IC50) on human μ-calpain was found to be 40 nM; in assay [1], 400 nM; at 20S Proteasome, 450 nM.
Consider `CCNC(=O)C(=O)[C@H](Cc1ccc(OC)cc1)NC(=O)[C@@H](NC(=O)CCCCC1CCC[S+]1[O-])C(C)C` (some centres unmarked) [Example 87], for which the half-maximal inhibitory concentration (IC50) at human μ-calpain is 400 nM; in assay [1] it was 1200 nM; at 20S Proteasome it was > 10000 nM. The molecule further yielded an EC50 in assay [2] of 9000 nM.
With `CCNC(=O)C(=O)[C@H](Cc1ccc(C(F)(F)F)cc1)NC(=O)[C@H](CC(C)C)NC(=O)CCCCC1CCSS1` (some centres unmarked) [Example 124], the half-inhibitory concentration (IC50) is 75 nM on human μ-calpain, 1100 nM in assay [1] and > 1000 nM at 20S Proteasome. A half-maximal effect in assay [2] (EC50) was put at 5000 nM.
For the molecule `CCNC(=O)C(=O)[C@H](Cc1ccc(OC)cc1)NC(=O)[C@H](CC(C)C)NC(=O)CCCCC1CCSS1` (some centres unmarked) [Example 94], the 50% inhibitory concentration (IC50) was 15 nM at human μ-calpain, 1000 nM in assay [1] and 400 nM on 20S Proteasome. The molecule further came in with a 50% effective concentration (EC50) in assay [2] of 1500 nM.
Turning to `CC(C)[C@H](NC(=O)CCCCC1CCSS1)C(=O)N[C@@H](Cc1ccc(Br)cc1)C(=O)C(=O)NC1CCCCC1` (some centres unmarked) [Example 57], the IC50 is 75 nM on human μ-calpain, 310 nM in assay [1] and > 1000 nM at 20S Proteasome. In assay [2], the “BSO EC50” value was “inactive”.
Take `Cc1ccc(S(=O)(=O)CNC(=O)C(=O)[C@H](Cc2ccccc2)NC(=O)[C@@H](NC(=O)CCCCC2CCSS2)C(C)C)cc1` (some centres unmarked) [Example 140]: the IC50 on human μ-calpain came to 150 nM; in assay [1], 450 nM; on 20S Proteasome, 80 nM. In assay [2], this molecule registered a half-maximal effective concentration (EC50) of 500 nM.
As for `CCNC(=O)C(=O)[C@H](Cc1ccc(C)cc1)NC(=O)[C@H](CC(C)C)NC(=O)CCCCC1CCSS1` (some centres unmarked) [Example 110], the IC50 is 30 nM at human μ-calpain, 500 nM in assay [1] and 280 nM on 20S Proteasome. The molecule also displayed an EC50 in assay [2] of 500 nM.
In the case of `CCNC(=O)C(=O)[C@H](Cc1ccc(C)cc1)NC(=O)[C@@H](NC(=O)CCCCC1CCSS1)C(C)C` (some centres unmarked) [Example 104], the IC50 at human μ-calpain worked out at 70 nM; in assay [1], 350 nM; at 20S Proteasome it was 180 nM. This molecule also showed an EC50 in assay [2] of 300 nM.
In the case of `CCNC(=O)C(=O)[C@H](Cc1ccc(OC)cc1)NC(=O)[C@@H](NC(=O)c1cccc(NC(=O)CCCCC2CCSS2)c1)C(C)C` (some centres unmarked) [Example 197], the results for the concentration for half-maximal inhibition (IC50) (on human μ-calpain; in assay [1]; at 20S Proteasome) were 46 nM, 250 nM and 420 nM, respectively.
As for `CCNC(=O)C(=O)[C@H](Cc1ccc(Cl)cc1)NC(=O)[C@@H](NC(=O)CCCCC1CCSS1)C(C)C` (some centres unmarked) [Example 1], the IC50 came to 60 nM at human μ-calpain, 350 nM in assay [1] and 500 nM on 20S Proteasome. In assay [2], the EC50 worked out at 350 nM.
As for `CCNC(=O)C(=O)[C@H](Cc1ccc(Cl)cc1)NC(=O)[C@@H](NC(=O)CCCCC1CCCS1)C(C)C` (some centres unmarked) [Example 3], the IC50 was found to be 100 nM at human μ-calpain, 400 nM in assay [1] and 110 nM on 20S Proteasome. In assay [2], this molecule yielded an EC50 of 4000 nM.
Consider `CCNC(=O)C(=O)[C@H](Cc1ccccc1)NC(=O)[C@H](CC(C)C)NC(=O)CNC(=O)CCCCC1CCSS1` (some centres unmarked) [Example 210], for which the IC50 on human μ-calpain is 40 nM; in assay [1] it was 4500 nM. The molecule also gave an EC50 in assay [2] of 10000 nM.
For the molecule `CCNC(=O)C(=O)[C@H](Cc1ccc(OC)cc1)NC(=O)[C@@H](NC(=O)c1ccccc1NC(=O)CCCCC1CCSS1)C(C)C` (some centres unmarked) [Example 198], the IC50 on human μ-calpain is 26 nM; in assay [1], 1800 nM. Further, in assay [2], the EC50 was 8000 nM.
As for `CCNC(=O)C(=O)[C@H](Cc1ccc(O)cc1)NC(=O)[C@H](CC(C)C)NC(=O)CCCCC1CCSS1` (some centres unmarked) [Example 82], the IC50 on human μ-calpain was 40 nM; in assay [1] it was 10000 nM. Moreover, the EC50 in assay [2] turned out to be 15000 nM.
As to `CCNC(=O)C(=O)[C@H](Cc1ccc(Cl)cc1)NC(=O)[C@@H](NC(=O)CCCCC1SC[C@@H]2NC(=O)N[C@H]12)C(C)C` (some centres unmarked) [Example 159], the IC50 came out at 100 nM at human μ-calpain and 5000 nM in assay [1]. In assay [2], the “BSO EC50” value is “inactive”.
As for `CCNC(=O)C(=O)[C@H](Cc1cccs1)NC(=O)[C@H](CC(C)C)NC(=O)CCCCC1CCSS1` (some centres unmarked) [Example 147], the half-maximal inhibitory concentration (IC50) was 40 nM on human μ-calpain and 2500 nM in assay [1]. The same molecule came in with an EC50 in assay [2] of 1500 nM.
In the case of `CCNC(=O)C(=O)[C@H](Cc1ccc(Br)cc1)NC(=O)[C@@H](NC(=O)CCCCC1CCS[S+]1[O-])C(C)C` (some centres unmarked) [Example 54], the IC50 at human μ-calpain turned out to be 150 nM; in assay [1], 8000 nM. The molecule also gave an EC50 in assay [2] of 5000 nM.
As to `Cc1ccc(S(=O)(=O)CNC(=O)C(=O)[C@H](Cc2ccc(Cl)cc2)NC(=O)[C@H](CC(C)C)NC(=O)CCCCC2CCSS2)cc1` (some centres unmarked) [Example 25], the IC50 on human μ-calpain was 120 nM; in assay [1], 1500 nM. The same molecule had an EC50 in assay [2] of 2000 nM.
As for `CC(C)[C@H](NC(=O)CNC(=O)CCCCC1CCSS1)C(=O)N[C@@H](Cc1ccccc1)C(=O)C(=O)NCc1ccccc1` (some centres unmarked) [Example 209], the half-maximal inhibitory concentration (IC50) was 60 nM at human μ-calpain and 2500 nM in assay [1]. In assay [2], the EC50 was > 100000 nM.
As to `CCNC(=O)C(=O)[C@H](Cc1ccc(C(F)(F)F)cc1)NC(=O)[C@@H](NC(=O)CCCCC1CCSS1)C(C)C` (some centres unmarked) [Example 122], the IC50 stood at 200 nM at human μ-calpain and 1100 nM in assay [1]. The molecule further yielded a concentration giving a half-maximal response (EC50) in assay [2] of 5000 nM.
The matching figures for `CCNC(=O)C(=O)[C@H](Cc1ccc(C#N)cc1)NC(=O)[C@H](CC(C)C)NC(=O)CCCCC1CCSS1` (some centres unmarked) [Example 132]: 30 nM, 1700 nM and 5000 nM.
With `CCNC(=O)C(=O)[C@H](Cc1ccccc1)NC(=O)[C@H](CC(C)C)NC(=O)CNC(=O)CCCCC1CCS[S+]1[O-]` (some centres unmarked) [Example 211], the IC50 worked out at 25 nM on human μ-calpain and 15000 nM in assay [1]. Further, in assay [2], the concentration for a half-maximal effect (EC50) was 4000 nM.
